Experimental data: patent US12630633B2, “Antibody molecules to PD-1 and uses thereof” (Novartis AG, priority 2015, dated 2026)
Like-named read-outs stand apart in the source and are kept apart here.

Key:
[1] = continuous daily dosing, transaminases, monkeys; format: in vivo
[2] = test system: MNFS-60; assay: anti-proliferative effect on M-CSF dependent cell line MNFS-60
[3] = continuous daily dosing, transaminases, rats; format: in vivo
[4] = test system: all other BaF3 cell lines; assay: kinase transfected BaF3 proliferation assays, all other BaF3 cell lines; settings: Mus musculus, BaF3, read-out: Cellular EC50 all other BaF3 cell lines
[5] = test system: BAF3-PDGFRβ; assay: kinase transfected BaF3 proliferation assay, BAF3-PDGFRβ; settings: Mus musculus, BaF3, read-out: Cellular EC50 BAF3-PDGFRβ
[6] = test system: glioblastoma; settings: cited from earlier work
[7] = test system: human T cell proliferation; settings: cited from earlier work
[8] = test system: MC38; assay: MC38 syngeneic colorectal cancer model, Compound A15 with anti-PD-1; format: in vivo; settings: preclinical data
[9] = test system: class I, IIa, IIIb, and IV isoforms (HDAC); settings: majority of class I; cited from earlier work
[10] = test system: MC38; assay: MC38 murine syngeneic tumor model, panobinostat with anti-PD-1; format: in vivo
[11] = test system: PD-L1 gene; settings: cited from earlier work
[12] = test system: T lymphocytes; assay: Compound A21 effects on T lymphocytes in vitro; format: cell-based
[13] = test system: MC38; assay: MC38 murine syngeneic tumor model, Compound A21 with anti-PD-1; format: in vivo, C57B1/6 mice; settings: Compound A21 100 mg/kg orally once weekly (split 50 mg/kg b.i.d.), anti-PD-1 10 mg/kg IV once weekly
Description: C57B1/6 mice were implanted with 1×10^6 MC38 cells/mouse. Vehicle and Compound A21 (50 mg/kg orally twice daily QW) were given for four doses, starting on day 4 post-tumor implant. Isotype and anti-mouse PD-1 were given 10 mg/kg IV QW.

[14] = test system: T lymphocytes; assay: T lymphocyte proliferation and cytokine production in vitro; format: cell-based
[15] = test system: PD-1-positive CD4+ and CD8+ lymphocytes; settings: 5 mg per week, cited from earlier work
[16] = test system: S6 kinase (S6K) phosphorylation; settings: predicted, cited from earlier work
[17] = test system: EGFR mutant NSCLC; assay: Compound A40 in EGFR mutant NSCLC patients; format: in vivo, human
[18] = test system: xenografted tumors; settings: cited from earlier work
[19] = test system: AML; settings: cited from earlier work
[20] = test system: S6 kinase (S6K) phosphorylation; settings: predicted by modeling, cited from earlier work
[21] = test system: PD-1-positive CD4+ and CD8+ lymphocytes; settings: 5 mg per week, elderly subjects; cited from earlier work
[22] = test system: metastatic breast cancer; settings: phase III, cited from earlier work
[23] = test system: CT26; settings: cited from earlier work
[24] = test system: KRAS-mutant CT26 colorectal tumor; settings: monotherapy, CT26 model; cited from earlier work
[25] = test system: metastatic TNBC; settings: Keynote-012; cited from earlier work
[26] = 0.5 mg daily dosing regimen, over the dosing interval

## CNC(=O)c1cc(Oc2ccc3nc(N[C@@H]4CCCC[C@H]4O)sc3c2)ccn1 [Compound A15]
[1]
  transaminases: transaminases elevation
[2]; read-out: EC50 anti-proliferative effect, MNFS-60, M-CSF dependent proliferation
  EC50: < 71 nM
[2]; read-out: EC50 anti-proliferative effect, MNFS-60; M-CSF dependent proliferation
  EC50: 71 nM
[3]
  transaminases: transaminases elevation
[4]
  EC50: > 10000 nM
[5]
  EC50: ≥ 2000 nM
[6]; 200 mg/kg daily, genetic mouse model of glioblastoma
  established tumors and survival: induce regression of established tumors and increase survival
[6]; 200 mg/kg daily, proneural glioblastoma-derived xenografts
  xenograft growth: slow the growth
[6]; animal models of glioma
  M2-type macrophages: reduction and re-programming of M2-type macrophages
[7]; monocytes co-cultured with neuroblastoma cell lines
  suppressive function of tumor-educated monocytes on CD8+ and CD4+ T cells: inhibit the suppressive function
[7]; neuroblastoma (Mao et al. 2016)
  potential of myeloid cells to stimulate human T cell proliferation: recovered the potential of myeloid cells to stimulate human T cell proliferation
[8]
  once-a-week (Q1W) versus daily dose, TAMs depletion and anti-tumor activity: performs at least as well as the daily dose

## Cc1[nH]c2ccccc2c1CCNCc1ccc(/C=C/C(=O)NO)cc1 [Compound A19, Panobinostat]
[9]
  inhibition of HDAC activity: highly effective at inhibiting the HDAC activity of the majority of class I, IIa, IIIb, and IV isoforms at low nanomolar concentrations
[10]; panobinostat 12 mg/kg every other day, anti-PD1 10 mg/kg IV once weekly
  animals achieving CRs: two of ten
[10]; recovery after dosing of panobinostat was completed
  body weight: Some reduction in body weight
[11]; melanoma cell lines, cultured melanoma biopsy material, tumor-bearing mice
  expression of the PD-L1 gene: enhanced expression of the PD-L1 gene
[11]; mice
  responses to treatment with a PD-1 inhibitor: modestly improved responses

## CN[C@@H](C)C(=O)N[C@H](C(=O)N1CCC[C@H]1c1nc(C(=O)c2ccc(F)cc2)cs1)C1CCCCC1 [Compound A21]
[12]
  IFNgamma: induced
  production of IL-10: suppressed
  proliferation of T lymphocytes: stimulated
[13]
  complete responses (CRs): neither single agent treatment yielded any CRs
[14]
  IFNgamma: induced IFNgamma
  production of IL-10: suppressed production of IL-10
  proliferation of T lymphocytes: stimulated proliferation of T lymphocytes
1800 mg in combination with paclitaxel
  tolerability: poorly tolerated
With paclitaxel, clinical data
  rate of pathological complete response of TNBC: increased the rate of pathological complete response

## COC1CC2CCC(C)C(O)(O2)C(=O)C(=O)N2CCCCC2C(=O)OC(C(C)CC2CCC(OCCO)C(OC)C2)CC(=O)C(C)/C=C(/C)C(O)C(OC)C(=O)C(C)CC(C)/C=C/C=C/C=C\1C (centres unmarked) [Compound A36, Everolimus]
[15]; compared to placebo
  percentage of PD-1-positive CD4+ and CD8+ lymphocytes: reducing the percentage of PD-1-positive CD4+ and CD8+ lymphocytes
[15]; elderly subjects
  response to an influenza vaccine: enhancing the response to an influenza vaccine
[16]; [26]
  inhibition of S6K phosphorylation: about 38%
[16]; 5 mg weekly dosing regimen
  inhibition of S6K phosphorylation: more than 50%
[16]; 20 mg weekly dosing regimen
  inhibition of mTOR-mediated S6K phosphorylation: almost completely

## Cc1cc(C(=O)Nc2nc3cccc(Cl)c3n2[C@@H]2CCCCN(C(=O)/C=C/CN(C)C)C2)ccn1 [Compound A40]
[17]
  efficacy: has shown efficacy

## O=C(/C=C/c1ccc2ccc(C(F)(F)F)cc2n1)c1ccncc1 [PFK-158, (E)-1-(pyridin-4-yl)-3-(7-(trifluoromethyl)quinolin-2-yl)-prop-2-en-1-one]
[18]
  antitumor activity: exhibit antitumor activity
[18]; xenografted tumors
  18FDG uptake: reduce

## Nc1ncn([C@H]2C[C@H](O)[C@@H](CO)O2)c(=O)n1 [decitabine, 5-aza-2′-deoxycytidine]
[19]; in vivo
  complete remission rate (CR+CRp): 17.8%
[19]; intent-to-treat population
  median Overall Survival (OS): 7.7 months

## CO[C@H]1C[C@@H]2CC[C@@H](C)[C@@](O)(O2)C(=O)C(=O)N2CCCC[C@H]2C(=O)O[C@H]([C@H](C)C[C@@H]2CC[C@@H](OCCO)[C@H](OC)C2)CC(=O)[C@H](C)/C=C(\C)[C@@H](O)[C@@H](OC)C(=O)[C@H](C)C[C@H](C)/C=C/C=C/C=C/1C [everolimus]
[20]; [26]
  inhibition of S6K phosphorylation: about 38%
[20]; 5 mg weekly dosing regimen
  inhibition of S6K phosphorylation: more than 50%
[20]; 20 mg weekly dosing regimen
  inhibition of mTOR-mediated S6K phosphorylation: almost completely
[21]
  immune effect: immunostimulatory

## CC(=O)O[C@H]1C(=O)[C@@]2(C)[C@H]([C@H](OC(=O)c3ccccc3)[C@]3(O)C[C@H](OC(=O)[C@H](O)[C@@H](NC(=O)c4ccccc4)c4ccccc4)C(C)=C1C3(C)C)[C@]1(OC(C)=O)CO[C@@H]1C[C@@H]2O [traditional paclitaxel, (2α,4α,5β,7β,10β,13α)-4,10-Bis(acetyloxy)-13-{[(2R,3S)-3-(benzoylamino)-2-hydroxy-3-phenylpropanoyl]oxy}-1,7-dihydroxy-9-oxo-5,20-epoxytax-11-en-2-yl benzoate]
[22]; first and second line or beyond
  ORR: 19%
[22]
  TTP: 16.9 weeks

## CC(=O)Nc1cccc(-n2c(=O)n(C3CC3)c(=O)c3c(Nc4ccc(I)cc4F)n(C)c(=O)c(C)c32)c1 [trametinib, N-(3-{3-cyclopropyl-5-[(2-fluoro-4-iodophenyl)amino]-6,8-dimethyl-2,4,7-trioxo-3,4,6,7-tetrahydropyrido[4,3-d]pyrimidin-1(2H)-yl}phenyl)acetamide]
[23]; CT26, treatment for seven days
  CD4+ T cells in tumor tissue: significant increases of CD4+ T cells
[23]; CT26
  tumor infiltrating lymphocytes (TILs): increases the numbers of tumor infiltrating lymphocytes (TILs)
[24]
  CD4+ tumor infiltrating lymphocytes (TILs): increased
  prevalence of CD8+ TILs: did not negatively affect

## pembrolizumab
[25]
  responses, patients: five of 27
